IC50 data for 45 compounds are collected here from patent US20250042889A1, “3CLPRO PROTEASE INHIBITOR” (SHANGHAI QILU PHARMACEUTICAL RESEARCH AND DEVELOPMENT …, priority 2021, published 2025).

Each structure is given as a SMILES string. Where only a bound is given, the exact number is not on record here.

In one test the target is SARS-COV-2 3CLpro/Mpro protease (Severe acute respiratory syndrome coronavirus 2 (2019-nCoV) (SARS-CoV-2), UniProt P0DTD1). Nature of the test: Inhibitory effect on SARS-COV-2 3CLpro/Mpro protease by fluorescence resonance energy transfer. The class given is biochemical. The note with it: IC50 (nM), Inhibition on SARS-CoV-2 3CLpro/Mpro protease, activity intervals A-D.
In the case of `CNc1cncc(C(=O)N2CCC[C@@H](Nc3c(C(=O)N4C5COCC4C5)cc(Br)cc3[N+](=O)[O-])C2)c1` [Example 357, ((3R)-3-((2-(3-oxa-6-azabicyclo[3.1.1]heptan-6-carbonyl)-4-bromo-6-nitrophenyl)amino)piperidin-1-yl)(5-(methylamino)pyridin-3-yl)methanone], the IC50 lay within 10 to 50 nM.

The test is the same for the next values; noted with them: activity intervals A-D, read-out: IC50 (nM), Inhibition on SARS-CoV-2 3CLpro/Mpro protease.
For the compound `N#Cc1cncc(C(=O)N2CCC[C@@H](Nc3c(C(=O)N4CCCCC4)cc(Br)cc3[N+](=O)[O-])C2)c1` [Example 41], the IC50 was in the range of 10 to 50 nM.

As for `CNc1cncc(C(=O)N2CCC[C@@H](Nc3c(C(=O)N4CCC=C(C)C4)cc(Br)cc3[N+](=O)[O-])C2)c1` [Example 310], the IC50 is 10 to 50 nM.

On to `Cc1cc(C(=O)N2C[C@H](Nc3c(C(=O)N4C[C@H](C)C[C@H](C)C4)cc(Br)cc3[N+](=O)[O-])C3(CC3)C2)cc(=O)[nH]1` [Example 92], for which the IC50 is 10 to 50 nM.

Consider `O=C(N[C@H]1CCCC[C@H]1Nc1c(C(=O)N2CCCCC2)cc(Br)cc1C(F)(F)F)c1cncc2ccccc12` [Example 9, N-((1S,2R)-2-((4-Bromo-2-(piperidin-1-carbonyl)-6-(trifluoromethyl)phenyl)amino)cyclohexyl) isoquinolin-4-formamide], for which the IC50 is less than 10 nM.

Turning to `O=C1CN(C(=O)c2cc(Br)cc([N+](=O)[O-])c2N[C@@H]2CCCC[C@@H]2NC(=O)c2cncc3cc(Cl)ccc23)CCN1` [Example 25, N-((1S,2R)-2-((4-bromo-2-nitro-6-(3-oxopiperazin-1-carbonyl)phenyl)amino)cyclohexyl)-7-chloroisoquinolin-4-formamide], the IC50 was in the range of 10 to 50 nM.

Turning to `CNc1cncc(C(=O)N2CCC[C@@H](Nc3c(C(=O)N4C[C@H](C)N(CCOC)[C@@H](C)C4)cc(Br)cc3[N+](=O)[O-])C2)c1` [Example 242], the IC50 was 10 to 50 nM.

For the compound `C[C@@H]1CN(C(=O)c2cc(Br)cc([N+](=O)[O-])c2N[C@@H]2CCCN(C(=O)c3cncc4cc(Cl)ccc34)C2)C[C@H](C)N1` [Example 135], the IC50 lay within 10 to 50 nM.

On to `O=C(c1cc(Br)cc([N+](=O)[O-])c1N[C@@H]1CCCN(C(=O)c2cc(=O)[nH]c3ccccc23)C1)N1CCCCC1` [Example 116], for which the IC50 is less than 10 nM.

For `CNc1cncc(C(=O)N2C[C@H](Nc3c(C(=O)N4C[C@@H](C)O[C@@H](C)C4)cc(Br)cc3[N+](=O)[O-])C[C@H]2C(=O)Nc2cccc(Br)c2)c1` [Example 370], the IC50 was in the range of 50 to 100 nM.

For the compound `CNc1cncc(C(=O)N2CC(Nc3c(C(=O)N4CCC[C@H](C)C4)cc(Br)cc3[N+](=O)[O-])C(C)(C)C2)c1` (stereo partly drawn) [Example 173], the IC50 lay in the range of 10 to 50 nM.

For `O=C(c1cc(Br)cc([N+](=O)[O-])c1N[C@@H]1CCCN(C(=O)[C@H]2CNCC(F)(F)C2)C1)N1CCC2(CCCO2)CC1` [Example 333], the IC50 is 10 to 50 nM.

Take `CNc1cncc(C(=O)N2C[C@H](Nc3c(C(=O)N4C[C@@H](C)O[C@@H](C)C4)cc(Br)cc3[N+](=O)[O-])C[C@H]2C(=O)Nc2nn(C)cc2Br)c1` [Example 383, (2S,4R)—N-(4-bromo-1-methyl-1H-pyrazol-3-yl)-4-((4-bromo-2-((2R,6S)-2,6-dimethylmorpholin-4-carbonyl)-6-nitrophenyl)amino)-1-(5-(methylamino)nicotinoyl) pyrrolidin-2-formamide]: the IC50 was in the range of 10 to 50 nM.

For the compound `O=C1CC(C(=O)N2CCC[C@@H](Nc3c(C(=O)N4CCCCC4)cc(Br)cc3[N+](=O)[O-])C2)c2ccccc2N1` (stereo partly drawn) [Example 204], the IC50 fell in the range of 10 to 50 nM.

Regarding `CNc1cncc(C(=O)N2CC(Nc3c(C(=O)N4CCC(C)(C)CC4)cc(Br)cc3[N+](=O)[O-])C(F)(F)C2)c1` (stereo not drawn) [Example 166], the IC50 is 10 to 50 nM.

Consider `CO[C@H]1CN(C(=O)c2cncc3[nH]nc(Cl)c23)C[C@@H]1Nc1c(C(=O)N2C[C@@H](C)O[C@@H](C)C2)cc(Br)cc1[N+](=O)[O-]` [Example 444, (5-Bromo-2-(((3S,4S)-1-(3-chloro-1H-pyrazolo[3,4-c]pyridin-4-carbonyl)-4-methoxypyrrolidin-3-yl)amino)-3-nitrophenyl)((2S,6R)-2,6-dimethylmorpholinyl)methanone], for which the IC50 was 10 to 50 nM.

For `CNc1cncc(C(=O)N2C[C@H](Nc3c(C(=O)N4C[C@@H](C)O[C@@H](C)C4)cc(Br)cc3[N+](=O)[O-])CC[C@H]2C#N)c1` [Example 398], the IC50 was 10 to 50 nM.

In the case of `O=C(c1cc(Br)cc([N+](=O)[O-])c1N[C@@H]1CCCN(C(=O)C2CNCC(F)(F)C2)C1)N1CCCC(F)(F)C1` (stereo in doubt) [Example 331], the IC50 was in the range of 10 to 50 nM.

In the case of `CNc1cncc(C(=O)N2C[C@H](Nc3c(C(=O)N4C[C@@H](C)O[C@@H](C)C4)cc(Br)cc3[N+](=O)[O-])C3(CC3)C2)c1` [Example 20], the IC50 lay within 10 to 50 nM.

As to `N#Cc1cc(Cl)cc(C(=O)N2CCCCC2)c1N[C@@H]1CCCN(C(=O)c2cncc3ccccc23)C1` [Example 59], the IC50 fell in the range of 10 to 50 nM.

For the compound `CNc1cncc(C(=O)N2C[C@H](Nc3c(C(=O)N4C[C@@H](C)O[C@@H](C)C4)cc(Br)cc3[N+](=O)[O-])CC[C@@H]2C#N)c1` [Example 403], the IC50 lay within 50 to 100 nM.

Turning to `CNc1cncc(C(=O)N2CC(Nc3c(C(=O)N4CCN(CC(F)(F)F)C(=O)C4)cc(Br)cc3[N+](=O)[O-])C(F)(F)C2)c1` (stereo not drawn) [Example 99], the IC50 was in the range of 100 to 200 nM.

Take `C[C@@H]1CN(C(=O)c2cc(Br)cc([N+](=O)[O-])c2N[C@@H]2CCCN(C(=O)[C@H]3CNCC(F)(F)C3)C2)C[C@H](C)O1` [Example 325]: the IC50 fell in the range of 10 to 50 nM.

Take `CNc1cncc(C(=O)N2CCC[C@@H](Nc3c(C(=O)N4CCC5(CC4)CNCC(F)(F)O5)cc(Br)cc3[N+](=O)[O-])C2)c1` [Example 338]: the IC50 lay within 10 to 50 nM.

Regarding `CSc1cncc(C(=O)N2CCC[C@@H](Nc3c(C(=O)N4CCCCC4)cc(Br)cc3[N+](=O)[O-])C2)c1` [Example 261], the IC50 lay in the range of 10 to 50 nM.

Take `CNc1cncc(C(=O)N2C[C@H](Nc3c(C(=O)N4C[C@@H](C)O[C@@H](C)C4)cc(Br)cc3[N+](=O)[O-])C[C@H]2COC)c1` [Example 447]: the IC50 lay in the range of 50 to 100 nM.

For `CNc1cncc(C(=O)N[C@H]2CCCC[C@H]2Nc2c(C(=O)N3C[C@@H](C)O[C@@H](C)C3)cc(Br)cc2[N+](=O)[O-])c1` [Example 198], the IC50 is 10 to 50 nM.

`COCCN1CCN(C(=O)c2cc(Br)cc([N+](=O)[O-])c2N[C@@H]2CCCN(C(=O)[C@H]3CC(=O)N[C@@H](C)C3)C2)CC1` [Example 249]: the IC50 was in the range of 10 to 50 nM.

Regarding `O=C(N[C@H]1CCCC[C@H]1Nc1c(C(=O)N2CCC(F)(F)CC2)cc(Br)cc1[N+](=O)[O-])c1cc(=O)[nH]c2ccccc12` [Example 16, N-((1S,2R)-2-((4-bromo-2-(4,4-difluoropiperidin-1-carbonyl)-6-nitrophenyl)amino)cyclohexyl)-2-oxo-1,2-dihydroquinolin-4-formamide], the IC50 lay in the range of 10 to 50 nM.

As for `O=C(c1cc[nH]c(=O)c1)N1CCC[C@@H](Nc2c(C(=O)N3CCC(F)(F)CC3)cc(Br)cc2[N+](=O)[O-])C1` [Example 24, (R)-4-(3-((4-bromo-2-(4,4-difluoropiperidin-1-carbonyl)-6-nitrophenyl)amino)piperidin-1-carbonyl)pyridin-2 (1H)-one], the IC50 was 100 to 200 nM.

With `O=C(N[C@H]1CCCC[C@H]1Nc1c(C(=O)N2CC3(CCOCC3)C2)cc(Br)cc1[N+](=O)[O-])c1cncc2cc(Cl)ccc12` [Example 124], the IC50 fell in the range of 10 to 50 nM.

`O=C(c1cc(Br)cnc1F)N1CCC[C@@H](Nc2c(C(=O)N3CCC(F)(F)CC3)cc(Br)cc2[N+](=O)[O-])C1` [Example 106]: the IC50 lay in the range of 10 to 50 nM.

Regarding `CNc1cncc(C(=O)N2CCC[C@@H](Nc3c(C(=O)N4CCCCC4)cc(Br)cc3C(F)(F)F)C2)c1` [Example 319], the IC50 was in the range of 50 to 100 nM.

For `CNc1cncc(C(=O)N2C[C@H](Nc3c(C(=O)N4CCN(CCOC)CC4)cc(Br)cc3[N+](=O)[O-])C(C)(C)C2)c1` [Example 191], the IC50 is 10 to 50 nM.

`C[C@@H]1CN(C(=O)c2cc(Br)cc([N+](=O)[O-])c2N[C@@H]2CCCN(C(=O)[C@H]3CC(=O)Nc4ccccc43)C2)C[C@H](C)O1` [Example 274]: the IC50 is less than 10 nM.

As to `CNc1cncc(C(=O)N2C[C@H](Nc3c(C(=O)N4C[C@@H](C)O[C@@H](C)C4)cc(Br)cc3[N+](=O)[O-])C[C@H]2C(=O)Nc2cc3cn(C)nc3cc2Cl)c1` [Example 399], the IC50 lay within 50 to 100 nM.

Take `CNc1cncc(C(=O)N2C[C@H](Nc3c(C(=O)N4C[C@@H](C)O[C@@H](C)C4)cc(Br)cc3[N+](=O)[O-])C[C@H]2C(=O)N2CCOCC2)c1` [Example 376]: the IC50 lay within 50 to 100 nM.

For the compound `CNc1cncc(C(=O)N2CCC[C@@H](Nc3c(C(=O)N4CCC(C)(O)CC4)cc(Br)cc3[N+](=O)[O-])C2)c1` [Example 241], the IC50 was 10 to 50 nM.

Regarding `CNc1cncc(C(=O)N2C[C@H](Nc3c(C(=O)N4C[C@@H](C)O[C@@H](C)C4)cc(Br)cc3[N+](=O)[O-])C[C@@H](O[C@@H]3CCOC3)C2)c1` [Example 448], the IC50 lay within 10 to 50 nM.

Take `O=C(N[C@H]1CCOC[C@H]1Nc1c(C(=O)N2CCCCC2)cc(Br)cc1[N+](=O)[O-])c1cncc2ccccc12` [Example 205]: the IC50 is less than 10 nM.

On to `CC1(C)C2CN(C(=O)c3cc(Br)cc([N+](=O)[O-])c3N[C@@H]3CCCN(C(=O)c4cncc5ccccc45)C3)CC21` (stereo partly drawn) [Example 7], for which the IC50 lay within 10 to 50 nM.

Consider `C=C[C@@H]1CN(C(=O)c2cc(Br)cc([N+](=O)[O-])c2N[C@@H]2CCCN(C(=O)c3cncc(NC)c3)C2)CCO1` [Example 344], for which the IC50 was 10 to 50 nM.

`O=C1C[C@@H](C(=O)N2CCC[C@@H](Nc3c(C(=O)N4CCCCC4)cc(Br)cc3[N+](=O)[O-])C2)c2ccccc2N1` [Example 265]: the IC50 lay within 10 to 50 nM.

Regarding `CNc1cncc(C(=O)N2CCC[C@@H](Nc3c(C(=O)N4CCO[C@H](CCl)C4)cc(Br)cc3[N+](=O)[O-])C2)c1` [Example 341], the IC50 was 10 to 50 nM.

On to `CNc1cncc(C(=O)N2CC(Nc3c(C(=O)N4CCC5(CCCCC5)CC4)cc(Br)cc3[N+](=O)[O-])C(C)(C)C2)c1` (stereo not drawn) [Example 171], for which the IC50 lay within 10 to 50 nM.
